In patent US9212163B2, “Pesticidal compositions and processes related thereto” (Dow AgroSciences LLC, priority 2012, dated 2015):

Test system: Beet Armyworm (BAW) (Spodoptera exigua)
Assay: Bioassay on Beet Armyworm (BAW), 128-well diet tray assay
Assay type: in vivo
Conditions: Table 3: Assay Results Part 1
Protocol: Certain molecules disclosed in this document were tested against BAW, CEW and CL using procedures described in the following examples. In the reporting of the results, the “BAW & CEW & CL Rating Table” was used (See Table Section).
Bioassays on BAW (Spodoptera exigua)
Bioassays on BAW were conducted using a 128-well diet tray assay. One to five second instar BAW larvae were placed in each well (3 mL) of the diet tray that had been previously filled with 1 mL of artificial diet to which 50 μg/cm^2 of the test compound (dissolved in 50 μL of 90:10 acetone-water mixture) had been applied (to each of eight wells) and then allowed to dry. Trays were covered with a clear self-adhesive cover, and held at 25° C., 14:10 light-dark for five to seven days. Percent mortality was recorded for the larvae in each well; activity in the eight wells was then averaged. The results are indicated in the tables entitled “Table 3: Assay Results Part 1” and “Table 4: Assay Results Part 2” (See Table Section).

In the case of O=C(NC1CCN(C2COC2)CC1)c1ccc(/C=C/C(c2cc(Cl)c(Cl)c(Cl)c2)C(F)(F)F)cc1Br (centres unmarked) [AC108, (E)-2-Bromo-N-(1-(oxetan-3-yl)piperidin-4-yl)-4-(4,4,4-trifluoro-3-(3,4,5-trichlorophenyl)but-1-en-1-yl)benzamide], the “BAW Rating” value is reported as “B (More than 0-Less than 50)”.
With O=C(NC1CS(=O)(=O)C1)c1ccc(/C=C/C(c2cc(Cl)c(Cl)c(Cl)c2)C(F)(F)F)cc1C(F)(F)F (centres unmarked) [AC35] the “BAW Rating” value was “A (50-100)”.
For Cc1cc(/C=C/C(c2cc(Cl)c(Cl)c(Cl)c2)C(F)(F)F)cc(C#N)c1-n1cncn1 (centres unmarked) [DC45], the “BAW Rating” value was “A (50-100)”.
O=C(Cc1ccc(Cl)nc1)NCc1ccc(/C=C/C(c2cc(Cl)c(Cl)c(Cl)c2)C(F)(F)F)cc1Cl (centres unmarked) [CC14] was tested, and the “BAW Rating” value was “A (50-100)”.
With COc1cc(/C=C/C(c2cc(Cl)c(F)c(Cl)c2)C(F)(F)F)ccc1C(=O)NC1CS(=O)(=O)C1 (centres unmarked) [AC85] the “BAW Rating” value was “A (50-100)”.
Fc1c(Cl)cc(C(/C=C/c2ccc3c(c2)CCC3NCCC(F)(F)F)C(F)(F)F)cc1Cl (centres unmarked) [BC10, (E)-5-(3-(3,5-Dichloro-4-fluorophenyl)-4,4,4-trifluorobut-1-en-1-yl)-N-(3,3,3-trifluoropropyl)-2,3-dihydro-1H-inden-1-amine] was tested, and the “BAW Rating” value was “A (50-100)”.
With C/C(=C\C(c1cc(Cl)cc(Cl)c1)C(F)(F)F)c1ccc(-n2cncn2)cc1 (centres unmarked) [DC68, (E)-1-(4-(4-(3,5-Dichlorophenyl)-5,5,5-trifluoropent-2-en-2-yl)phenyl)-1H-1,2,4-triazole] the “BAW Rating” value was “A (50-100)”.
For O=C(NC1CS(=O)(=O)C1)c1ccc(/C=C/C(c2cc(Cl)c(Cl)c(Cl)c2)C(F)(F)F)cc1Cl (centres unmarked) [AC30], the “BAW Rating” value was “A (50-100)”.
For CCC(=O)NCc1ccc(/C=C/C(c2cc(Cl)cc(Cl)c2)C(F)(F)F)cc1 (centres unmarked) [CC4], the “BAW Rating” value was “A (50-100)”.
With CCc1cc(/C=C/C(c2cc(Cl)c(F)c(Cl)c2)C(F)(F)F)ccc1C(=O)NCc1ccc(Cl)nc1 (centres unmarked) [AC72] the “BAW Rating” value was “A (50-100)”.
In the case of Cc1cc(/C=C/C(c2cc(Cl)cc(Cl)c2)C(F)(F)F)ccc1-n1cncn1 (centres unmarked) [DC62], the “BAW Rating” value is reported as “A (50-100)”.
In the case of O=C(NCc1ccc(Cl)nc1)c1ccc(/C=C/C(c2cc(Cl)cc(Cl)c2)C(F)(F)F)cc1F (centres unmarked) [AC49], the “BAW Rating” value is reported as “A (50-100)”.
In the case of FC(F)(F)c1cc(C(/C=C/c2ccc(-n3cncn3)cc2)C(F)(F)F)cc(C(F)(F)F)c1 (centres unmarked) [DC16], the “BAW Rating” value is reported as “A (50-100)”.
With Cc1cc(/C=C/C(c2cc(Cl)cc(Cl)c2)C(F)(F)F)ccc1C(=O)NCC(=O)NC1CC1 (centres unmarked) [AC40] the “BAW Rating” value was “A (50-100)”.
O=C(NC1CCCc2cc(/C=C/C(c3cc(Cl)c(Cl)c(Cl)c3)C(F)(F)F)ccc21)C1CC1 (centres unmarked) [BC7] was tested, and the “BAW Rating” value was “A (50-100)”.
With CONC(=O)CNC(=O)c1ccc(/C=C/C(c2cc(Cl)c(Cl)c(Cl)c2)C(F)(F)F)cc1Br (centres unmarked) [AC110] the “BAW Rating” value was “A (50-100)”.
For O=C(CNC(=O)c1ccc(/C=C/C(c2cc(Cl)c(F)c(Cl)c2)C(F)(F)F)cc1[N+](=O)[O-])NCC(F)(F)F (centres unmarked) [AC98], the “BAW Rating” value was “A (50-100)”.
N#Cc1cc(/C=C/C(c2cc(Cl)c(F)c(Cl)c2)C(F)(F)F)ccc1-n1cncn1 (centres unmarked) [DC35] was tested, and the “BAW Rating” value was “A (50-100)”.
N#Cc1cc(/C=C/C(c2cc(Cl)c(Cl)c(Cl)c2)C(F)(F)F)ccc1-n1cnc(N)n1 (centres unmarked) [DC41, (E)-2-(3-Amino-1H-1,2,4-triazol-1-yl)-5-(4,4,4-trifluoro-3-(3,4,5-trichlorophenyl)but-1-en-1-yl)benzonitrile] was tested, and the “BAW Rating” value was “A (50-100)”.
With O=C(CNC(=O)c1ccc(/C=C/C(c2cc(Cl)c(F)c(Cl)c2)C(F)(F)F)cc1F)NCC(F)(F)F (centres unmarked) [AC68] the “BAW Rating” value was “A (50-100)”.
With O=C(NC1CSC1)c1ccc(/C=C/C(c2cc(Cl)cc(Cl)c2)C(F)(F)F)cc1F (centres unmarked) [AC61] the “BAW Rating” value was “A (50-100)”.
With CCNC(=O)NCc1ccc(/C=C/C(c2cc(Cl)cc(Cl)c2)C(F)(F)F)cc1Cl (centres unmarked) [CC31, (E)-1-(2-Chloro-4-(3-(3,5-dichlorophenyl)-4,4,4-trifluorobut-1-en-1-yl)benzyl)-3-ethylurea] the “BAW Rating” value was “B (More than 0-Less than 50)”.
For O=C(CNC(=O)c1ccc(/C=C/C(c2cc(Cl)c(F)c(Cl)c2)C(F)(F)F)cc1Br)NCC(F)(F)F (centres unmarked) [AC79, (E)-2-Bromo-4-(3-(3,5-dichloro-4-fluorophenyl)-4,4,4-trifluorobut-1-en-1-yl)-N-(2-oxo-2-((2,2,2-trifluoroethyl)amino)ethyl)benzamide], the “BAW Rating” value was “A (50-100)”.
With Cc1cc(/C=C/C(c2cc(Cl)cc(Cl)c2)C(F)(F)F)ccc1C(=O)NC1CSC1 (centres unmarked) [AC10] the “BAW Rating” value was “A (50-100)”.
In the case of O=C(CNC(=O)c1ccc(/C=C/C(c2cc(Cl)c(Cl)c(Cl)c2)C(F)(F)F)cc1Cl)NCC(F)(F)F (centres unmarked) [AC64, (E)-2-Chloro-N-(2-oxo-2-((2,2,2-trifluoroethyl)amino)ethyl)-4-(4,4,4-trifluoro-3-(3,4,5-trichlorophenyl)but-1-en-1-yl)benzamide], the “BAW Rating” value is reported as “A (50-100)”.
For O=C(NCc1ccc(/C=C/C(c2cc(Cl)c(F)c(Cl)c2)C(F)(F)F)cc1Cl)C1CC1 (centres unmarked) [CC15], the “BAW Rating” value was “A (50-100)”.
With O=C(NCc1ccc(/C=C/C(c2cc(Cl)c(Cl)c(Cl)c2)C(F)(F)F)cc1Br)C1CC1 (centres unmarked) [CC26] the “BAW Rating” value was “A (50-100)”.
In the case of FC(F)(F)C(/C=C/c1ccc(-n2cncn2)c(Cl)c1)c1cc(Cl)cc(Cl)c1 (centres unmarked) [DC50], the “BAW Rating” value is reported as “A (50-100)”.
With CCNC(=O)NCc1ccc(/C=C/C(c2cc(Cl)c(Cl)c(Cl)c2)C(F)(F)F)cc1C(F)(F)F (centres unmarked) [CC32] the “BAW Rating” value was “A (50-100)”.
In the case of O=C(CC(F)(F)F)NNc1ccc(/C=C/C(c2cc(Cl)c(Cl)c(Cl)c2)C(F)(F)F)cc1 (centres unmarked) [CC51], the “BAW Rating” value is reported as “A (50-100)”.
For FC(F)(F)C(/C=C/c1ccc(-n2cncn2)cc1Cl)c1cc(Cl)c(Cl)c(Cl)c1 (centres unmarked) [DC66], the “BAW Rating” value was “A (50-100)”.
In the case of O=C(NC1C[S+]([O-])C1)c1ccc(/C=C/C(c2cc(Cl)c(F)c(Cl)c2)C(F)(F)F)cc1F (centres unmarked) [AC87], the “BAW Rating” value is reported as “A (50-100)”.
In the case of O=C(CNC(=S)c1ccc(/C=C/C(c2cc(Cl)c(Cl)c(Cl)c2)C(F)(F)F)cc1Br)NCC(F)(F)F (centres unmarked) [AC91, (E)-2-(2-Bromo-4-(4,4,4-trifluoro-3-(3,4,5-trichlorophenyl)but-1-en-1-yl)phenylthioamido)-N-(2,2,2-trifluoroethyl)acetamide], the “BAW Rating” value is reported as “A (50-100)”.
For O=C(CC(F)(F)F)NC1CCc2cc(/C=C/C(c3cc(Cl)c(F)c(Cl)c3)C(F)(F)F)ccc21 (centres unmarked) [BC8], the “BAW Rating” value was “A (50-100)”.
With CC(=O)N1CCC(NC(=O)c2ccc(/C=C/C(c3cc(Cl)c(Cl)c(Cl)c3)C(F)(F)F)cc2Br)CC1 (centres unmarked) [AC103, (E)-N-(1-Acetylpiperidin-4-yl)-2-bromo-4-(4,4,4-trifluoro-3-(3,4,5-trichlorophenyl)but-1-en-1-yl)benzamide] the “BAW Rating” value was “A (50-100)”.
In the case of CCc1cc(/C=C/C(c2cc(Cl)c(F)c(Cl)c2)C(F)(F)F)ccc1C(=O)NCC(=O)NCC(F)(F)F (centres unmarked) [AC80], the “BAW Rating” value is reported as “A (50-100)”.
FC(F)(F)C(/C=C/c1ccc(CNC(=S)C2CC2)c(Cl)c1)c1cc(Cl)c(Cl)c(Cl)c1 (centres unmarked) [CC20] was tested, and the “BAW Rating” value was “A (50-100)”.
In the case of Cc1cc(/C=C/C(c2cc(Cl)c(Cl)c(Cl)c2)C(F)(F)F)ccc1C(=O)NC1CSC1 (centres unmarked) [AC23], the “BAW Rating” value is reported as “A (50-100)”.
With Cc1cc(/C=C/C(c2cc(Cl)cc(Cl)c2)C(F)(F)F)cc(C#N)c1-n1cncn1 (centres unmarked) [DC44] the “BAW Rating” value was “A (50-100)”.
COC(/C=C/c1ccc(-n2cncn2)cc1)(c1cc(Cl)cc(Cl)c1)C(F)(F)F (centres unmarked) [DC70, (E)-1-(4-(3-(3,5-Dichlorophenyl)-4,4,4-trifluoro-3-methoxybut-1-en-1-yl)phenyl)-1H-1,2,4-triazole] was tested, and the “BAW Rating” value was “A (50-100)”.
O=C(C1CC1)N(Cc1ccccn1)Cc1ccc(/C=C/C(c2cc(Cl)c(Cl)c(Cl)c2)C(F)(F)F)cc1C(F)(F)F (centres unmarked) [CC29, (E)-N-(Pyridin-2-ylmethyl)-N-(4-(4,4,4-trifluoro-3-(3,4,5-trichlorophenyl)but-1-enyl)-2-(trifluoromethyl)benzyl)cyclopropanecarboxamide] was tested, and the “BAW Rating” value was “A (50-100)”.
O=C(NCc1ccc(Cl)nc1)c1ccc(/C=C/C(c2cc(Cl)c(Cl)c(Cl)c2)C(F)(F)F)cc1Cl (centres unmarked) [AC28] was tested, and the “BAW Rating” value was “A (50-100)”.
With O=C(NCc1ccc(Cl)nc1)c1ccc(/C=C/C(c2cc(Cl)c(F)c(Cl)c2)C(F)(F)F)cc1Br (centres unmarked) [AC63] the “BAW Rating” value was “A (50-100)”.
In the case of O=C(CC(F)(F)F)NCc1ccc(/C=C\C(c2cc(Cl)c(Cl)c(Cl)c2)C(F)(F)F)cc1 (centres unmarked) [CC54, (Z)-3,3,3-Trifluoro-N-(4-(4,4,4-trifluoro-3-(3,4,5-trichlorophenyl)but-1-en-1-yl)benzyl)propanamide], the “BAW Rating” value is reported as “A (50-100)”.
For Cc1cc(/C=C/C(c2cc(Cl)c(Cl)c(Cl)c2)C(F)(F)F)ccc1C(=O)NC(C)(C)c1ccccn1 (centres unmarked) [AC27], the “BAW Rating” value was “A (50-100)”.
For FC(F)(F)C(/C=C/c1ccc(-n2cncn2)cc1)c1ccc(Cl)c(Cl)c1 (centres unmarked) [DC12], the “BAW Rating” value was “A (50-100)”.
In the case of FC(F)(F)CNC(=S)CNC(=S)c1ccc(/C=C/C(c2cc(Cl)c(Cl)c(Cl)c2)C(F)(F)F)cc1Br (centres unmarked) [AC90, (E)-2-Bromo-N-(2-thioxo-2-((2,2,2-trifluoroethyl)amino)ethyl)-4-(4,4,4-trifluoro-3-(3,4,5-trichlorophenyl)but-1-en-1-yl)benzothioamide], the “BAW Rating” value is reported as “A (50-100)”.
N#Cc1cc(/C=C\C(c2cc(Cl)c(F)c(Cl)c2)C(F)(F)F)ccc1-n1cncn1 (centres unmarked) [DC46] was tested, and the “BAW Rating” value was “A (50-100)”.
For O=C(NC1CCNCC1)c1ccc(/C=C/C(c2cc(Cl)c(Cl)c(Cl)c2)C(F)(F)F)cc1Br (centres unmarked) [AC114, (E)-2-Bromo-N-(piperidin-4-yl)-4-(4,4,4-trifluoro-3-(3,4,5-trichlorophenyl)but-1-en-1-yl)benzamide], the “BAW Rating” value was “A (50-100)”.
In the case of FC(F)(F)C(/C=C/c1ccc(-n2cncn2)cc1)c1cc(Cl)cc(Cl)c1 (centres unmarked) [DC1, (E)-1-(4-(3-(3,5-Dichlorophenyl)-4,4,4-trifluorobut-1-en-1-yl)phenyl)-1H-1,2,4-triazole], the “BAW Rating” value is reported as “A (50-100)”.
